What all share (type): biochemical
One experiment has as its target T1, activated hepsin (Homo sapiens, UniProt P05981).
T1 construct: purchased R&D Systems 4776-SE-010
Kind of experiment: Fluorescent kinetic enzyme assay of hepsin activity (Boc-QAR-AMC).

For the next experiment, the target named is T2, matriptase (Homo sapiens, UniProt Q9Y5Y6).
T2 construct: purchased R&D Systems 3946-SE-010
T2 sequence (Q9Y5Y6 615-855 limits assumed): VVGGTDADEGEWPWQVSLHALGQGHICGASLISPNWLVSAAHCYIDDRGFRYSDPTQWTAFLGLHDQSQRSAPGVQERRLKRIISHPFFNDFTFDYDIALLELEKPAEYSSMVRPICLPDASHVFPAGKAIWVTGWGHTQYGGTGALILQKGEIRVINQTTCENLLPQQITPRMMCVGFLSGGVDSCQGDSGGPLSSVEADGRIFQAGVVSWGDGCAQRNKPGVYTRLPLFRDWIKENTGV
Briefly: Fluorescent kinetic enzyme assay of matriptase activity (Boc-QAR-AMC). The note with it: Table 2; read-out: Matriptase (IC50 nM).

The target of experiment [1] is T3, recombinant HGFA serine protease domain (Homo sapiens, UniProt Q04756).
T3 construct: His6 tag (N); seven amino acid spacer plus TEV cleavage site (N); made in house; host or cells: High 5 insect cells (baculovirus; Sf9 for virus production)
T3 sequence (Q04756 373-655): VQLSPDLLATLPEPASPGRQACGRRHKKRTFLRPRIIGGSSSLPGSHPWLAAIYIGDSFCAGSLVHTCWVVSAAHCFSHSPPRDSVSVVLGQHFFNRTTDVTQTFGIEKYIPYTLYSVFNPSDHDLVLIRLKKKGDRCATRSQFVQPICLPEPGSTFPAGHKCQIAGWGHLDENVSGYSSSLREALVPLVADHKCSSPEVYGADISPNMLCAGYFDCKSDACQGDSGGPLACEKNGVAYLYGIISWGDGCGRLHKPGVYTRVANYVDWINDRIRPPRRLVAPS
Briefly: Fluorescent kinetic enzyme assay of HGFA activity (Boc-QLR-AMC). From the text:
The compounds prepared in Examples 1 to 8 were subjected to a series of inhibitions studies. The compounds were first tested in an HGFA enzymatic assay using the fluorogenic substrate Boc-QLR-AMC with a recombinant form of the HGFA serine protease domain.
This PCR product was cloned into the SfoI-HindIII sites of a modified pFastBac HT baculovirus expression vector (Addgene, Cambridge, MA). This vector contains a six amino His tag followed by a seven amino spacer and a seven amino acid TEV cleavage site placed immediately downstream of the honey bee melittin signal peptide. Using a modified Bac to Bac Expression System (Life Technologies, Carlsbad, CA), recombinant HGFA bacmids were obtained by transforming DH10Bac Escherichia coli cells. To obtain HGFA containing baculovirus, purified bacmids were transfected into Sf9 insect cells. After 5 days in culture at 27° C., media was harvested from transfected Sf9 cells. This media was used to prepare baculovirus infected insect cells (BIICs). These BIIICs were used to infect High 5 insect cells. Four days post infection, media was harvested, and recombinant protein was prepared as follows. Media was chilled to 4° C. and spun at 4000×g for 20 minutes (all subsequent steps were performed at 4° C. unless noted). Clarified media was passed first through a Whatman GF/B 1 um (#1821-047, GE Healthcare Life Sciences, Piscataway, NJ) and then a 0.22 μm PES membrane (#99955, TPP Techno Plastic Products AG, Trasadingen, Switzerland) and then concentrated using a Pall Centramate tangential flow system and Centramate T-series Cassette (#OS010T12, Pall Corporation, Port Washington, NY). Concentrated media was then buffer exchanged in two steps, five volumes of 50 mM Na-phosphate, 500 mM NaCl, pH 6.2, followed by five volumes of 50 mM Na-phosphate, 500 mM NaCl, pH 7.5. […] After mixing this slurry for 12 hours, nickel agarose beads were allowed to settle by gravity and then loaded into a column. Beads were washed with buffer (25 mM Na-phosphate, 500 mM NaCl, 25 mM imidazole, pH 8) and the bound protein eluted using (25 mM Na-phosphate, 500 mM NaCl, 250 mM imidazole, pH 8). Using a Amicon Ultra-4 Centrifugal filters (#UFC801008, Merck Millipore, Ltd., Tullagreen, Ireland), peak protein fractions were concentrated and run over a Superdex-200 10/300 GL column (GE Healthcare Life Sciences, Piscataway, NJ) in 10 mM Tris, 200 mM NaCl, 0.2 mM EDTA, pH 8. HGFA containing fractions were pooled, concentrated, made 50% glycerol, and stored at minus 20° C. Protein was quantitated using a modified Lowry protein assay (#500-0006, Bio-Rad Laboratories, Hercules, CA) and specific activity determined using Boc-QLR-AMC substrate.
Fluorescent kinetic enzyme assays of HGFA, matriptase, and hepsin activity: Compounds (0-20 μM final concentration in reaction) were diluted in DMSO (2% DMSO final concentration in reaction) and then mixed with either recombinant HGFA serine protease domain, matriptase (#3946-SE-010, R&D Systems, Minneapolis, Minnesota), or activated hepsin* (#4776-SE-010, R&D Systems, Minneapolis, Minnesota) in black 384 well plates (Corning #3575. Coming, NY). The final assay concentration for HGFA, matriptase, and hepsin, were 6.25 nM, 0.2 nM, and 0.3 nM, respectively in TNC buffer (25 mM Tris, 150 mM NaCl, 5 mM CaCl2, 0.01% Triton X-100, pH 8). After thirty minutes of incubation at room temperature, Boc-QLR-AMC substrate was added (HGFA assay) or Boc-QAR-AMC substrate (matriptase, and hepsin assays). Fluorescence (excitation at 380 nm and emission at 460 nm) was kinetically measured at room temperature over a 1 hour time period using a Biotek Synergy 2 plate reader (Winnoski, VT). From a plot of the mean reaction velocity versus the inhibitor concentration, a non-linear four parameter curve fit was performed using GraphPad Prism (GraphPad Software, San Diego, CA) to determine inhibitor IC50s. The IC50 values were determined from the average of three or more separate experimental determinations. […]

[2] abbreviates: Table 2, read-out: Hepsin (IC50 nM).
[3] abbreviates: Table 3, average of three experiments, read-out: Hepsin IC50.
[4] abbreviates: Example 12, read-out: IC50 for hepsin.
Setting [5] is: Table 3, average of three experiments, read-out: HGFA IC50.

Where two headings read alike, the source gives them in different places.

T1 sequence (P05981 163-417 limits assumed): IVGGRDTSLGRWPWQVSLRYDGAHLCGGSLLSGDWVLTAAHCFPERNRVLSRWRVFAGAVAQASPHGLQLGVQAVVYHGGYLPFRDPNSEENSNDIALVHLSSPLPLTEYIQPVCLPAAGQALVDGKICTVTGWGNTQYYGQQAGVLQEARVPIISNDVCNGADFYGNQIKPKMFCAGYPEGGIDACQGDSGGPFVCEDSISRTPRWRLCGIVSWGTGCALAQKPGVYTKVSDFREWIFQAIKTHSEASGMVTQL
T1 sequence (P05981 1-162 partner limits assumed): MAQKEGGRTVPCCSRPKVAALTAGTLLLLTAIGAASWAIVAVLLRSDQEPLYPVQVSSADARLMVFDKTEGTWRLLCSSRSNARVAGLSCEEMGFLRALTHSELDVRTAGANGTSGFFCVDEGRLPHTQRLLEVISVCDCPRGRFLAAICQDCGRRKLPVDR
Procedure for activated hepsin: (§1) After thirty minutes of incubation at room temperature, Boc-QLR-AMC substrate was added (HGFA assay) or Boc-QAR-AMC substrate (matriptase, and hepsin assays). […] From a plot of the mean reaction velocity versus the inhibitor concentration, a non-linear four parameter curve fit was performed using GraphPad Prism (GraphPad Software, San Diego, CA) to determine inhibitor IC50s. The IC50 values were determined from the average of three or more separate experimental determinations. Apparent Ki values were calculated using the Cheng and Prusoff equation (Ki=IC50/(1+[S]/Km).
(§2) Inhibitors were pre-incubated with protease followed by the addition of the substrate. Inhibition of substrate proteolysis derived fluorescence was monitored kinetically over a period of one hour.
Procedure for matriptase: as §1, §2

Broadly, the IC50 is the concentration that inhibits the measured activity by half. In the case of `CC(=O)N[C@@H](Cc1ccc(O)c([N+](=O)[O-])c1)C(=O)N[C@@H](CC(C)C)C(=O)N[C@@H](Cc1ccc(Br)cc1)C(=O)N[C@@H](CCCNC(=N)N)C(=O)c1nc2ccccc2s1` [VD4112], the half-inhibitory concentration (IC50) at activated hepsin (setting [2]) is 1.15 nM; at matriptase, 9.49 nM; in experiment [1] (Table 2, read-out: HGFA (IC50 nM)), 14000 nM.
Turning to `CC(C)C[C@H](NC(=O)OC1CCN(S(=O)(=O)c2ccc(Cl)cc2)CC1)C(=O)N[C@@H](CCCNC(=N)N)C(=O)c1nc2ccccc2s1` [Compound 8i, 1-((4-chlorophenyl)sulfonyl)piperidin-4-yl ((S)-1-(((S)-1-(benzo[d]thiazol-2-yl)-5-guanidino-1-oxopentan-2-yl)amino)-4-methyl-1-oxopentan-2-yl)carbamate], the 50% inhibitory concentration (IC50) on activated hepsin (setting [3]) worked out at 60 nM.
`CC(=O)N1CCC(OC(=O)N[C@@H](CC(C)C)C(=O)N[C@@H](CCCNC(=N)N)C(=O)c2nc3ccccc3s2)CC1` [Compound 8e, 1-acetylpiperidin-4-yl ((S)-1-(((S)-1-(benzo[d]thiazol-2-yl)-5-guanidino-1-oxopentan-2-yl)amino)-4-methyl-1-oxopentan-2-yl)carbamate]: the 50% inhibitory concentration (IC50) on activated hepsin (setting [3]) came to 20 nM.
With `CC(C)C[C@H](NC(=O)OC1CCN(S(=O)(=O)c2cccc(F)c2)CC1)C(=O)N[C@@H](CCCNC(=N)N)C(=O)c1nc2ccccc2s1` [Compound 8j, 1-((3-fluorophenyl)sulfonyl)piperidin-4-yl ((S)-1-(((S)-1-(benzo[d]thiazol-2-yl)-5-guanidino-1-oxopentan-2-yl)amino)-4-methyl-1-oxopentan-2-yl)carbamate], the 50% inhibitory concentration (IC50) on activated hepsin (setting [3]) was 70 nM.
For `CC(C)C[C@H](NC(=O)OC(Cc1ccccc1)C1CCNCC1)C(=O)N[C@@H](CCCNC(=N)N)C(=O)c1nc2ccccc2s1` (stereo partly drawn) [Compound 11b, 2-phenyl-1-(piperidin-4-yl)ethyl ((S)-1-(((S)-1-(benzo[d]thiazol-2-yl)-5-guanidino-1-oxopentan-2-yl)amino)-4-methyl-1-oxopentan-2-yl)carbamate], the IC50 at activated hepsin (setting [4]) was 2 nM; in experiment [1] (setting [5]), 6000 nM.
Turning to `Cc1cc(C)c(S(=O)(=O)N2CCC(OC(=O)N[C@@H](CC(C)C)C(=O)N[C@@H](CCCNC(=N)N)C(=O)c3nc4ccccc4s3)CC2)c(C)c1` [Compound 8m, 1-(mesitylsulfonyl)piperidin-4-yl ((S)-1-(((S)-1-(benzo[d]thiazol-2-yl)-5-guanidino-1-oxopentan-2-yl)amino)-4-methyl-1-oxopentan-2-yl)carbamate], the IC50 on activated hepsin (setting [3]) turned out to be 110 nM.
`COc1ccc(Cl)cc1S(=O)(=O)N1CCC(OC(=O)N[C@@H](CC(C)C)C(=O)N[C@@H](CCCNC(=N)N)C(=O)c2nc3ccccc3s2)CC1` [Compound 8l, 1-((5-chloro-2-methoxyphenyl)sulfonyl)piperidin-4-yl ((S)-1-(((S)-1-(benzo[d]thiazol-2-yl)-5-guanidino-1-oxopentan-2-yl)amino)-4-methyl-1-oxopentan-2-yl)carbamate]: at activated hepsin (setting [3]), the IC50 came out at 60 nM.
As to `CC(C)C[C@H](NC(=O)OC1CCN(S(=O)(=O)c2ccc([N+](=O)[O-])cc2[N+](=O)[O-])CC1)C(=O)N[C@@H](CCCNC(=N)N)C(=O)c1nc2ccccc2s1` [Compound 8k, 1-((2,4-dinitrophenyl)sulfonyl)piperidin-4-yl ((S)-1-(((S)-1-(benzo[d]thiazol-2-yl)-5-guanidino-1-oxopentan-2-yl)amino)-4-methyl-1-oxopentan-2-yl)carbamate], the IC50 at activated hepsin (setting [3]) stood at 110 nM.
For the compound `CCS(=O)(=O)N1CCC(OC(=O)N[C@@H](CC(C)C)C(=O)N[C@@H](CCCNC(=N)N)C(=O)c2nc3ccccc3s2)CC1` [Compound 8h, 1-(ethylsulfonyl)piperidin-4-yl ((S)-1-(((S)-1-(benzo[d]thiazol-2-yl)-5-guanidino-1-oxopentan-2-yl)amino)-4-methyl-1-oxopentan-2-yl)carbamate], the IC50 at activated hepsin (setting [3]) was 10 nM.
For the compound `CC(C)C[C@H](NC(=O)OC(c1ccccc1)C1CCNCC1)C(=O)N[C@@H](CCCNC(=N)N)C(=O)c1nc2ccccc2s1` (stereo partly drawn) [Compound 11a, phenyl(piperidin-4-yl)methyl ((S)-1-(((S)-1-(benzo[d]thiazol-2-yl)-5-guanidino-1-oxopentan-2-yl)amino)-4-methyl-1-oxopentan-2-yl)carbamate], the IC50 on activated hepsin (setting [4]) was 8 nM; in experiment [1] (setting [5]), 14000 nM.
Consider `CC(C)C[C@H](NC(=O)OC1CCN(S(=O)(=O)c2ccccc2F)CC1)C(=O)N[C@@H](CCCNC(=N)N)C(=O)c1nc2ccccc2s1` [Compound 8g, 1-((2-fluorophenyl)sulfonyl)piperidin-4-yl ((S)-1-(((S)-1-(benzo[d]thiazol-2-yl)-5-guanidino-1-oxopentan-2-yl)amino)-4-methyl-1-oxopentan-2-yl)carbamate], for which the IC50 at activated hepsin (setting [3]) came out at 70 nM.
On to `CC(C)C[C@H](NC(=O)OC1(c2ccccc2)CCNCC1)C(=O)N[C@@H](CCCNC(=N)N)C(=O)c1nc2ccccc2s1` [Compound 8a, 4-phenylpiperidin-4-yl ((S)-1-(((S)-1-(benzo[d]thiazol-2-yl)-5-guanidino-1-oxopentan-2-yl)amino)-4-methyl-1-oxopentan-2-yl)carbamate], for which the IC50 in experiment [1] (setting [5]) worked out at 780 nM.
Turning to `CC(C)C[C@H](NC(=O)OC1CCN(S(=O)(=O)c2ccccc2)CC1)C(=O)N[C@@H](CCCNC(=N)N)C(=O)c1nc2ccccc2s1` [Compound 8f, 1-(phenylsulfonyl)piperidin-4-yl ((S)-1-(((S)-1-(benzo[d]thiazol-2-yl)-5-guanidino-1-oxopentan-2-yl)amino)-4-methyl-1-oxopentan-2-yl)carbamate], the IC50 on activated hepsin (setting [3]) turned out to be 20 nM.
In the case of `CC(=O)N[C@H]1Cc2ccc(cc2)OC/C=C\CNC(=O)C[C@@H](C(=O)N[C@@H](CCCNC(=N)N)C(=O)c2nc3ccccc3s2)NC(=O)[C@H](CC(C)C)NC1=O` [VD4054, (10S,13S,16S,Z)-16-acetamido-N—((S)-1-(benzo[d]thiazol-2-yl)-5-guanidino-1-oxopentan-2-yl)-13-isobutyl-8,12,15-trioxo-2-oxa-7,11,14-triaza-1(1,4)-benzenacycloheptadecaphan-4-ene-10-carboxamide], the results for the concentration for half-maximal inhibition (IC50) on activated hepsin (setting [2]) and at matriptase were 0.643 nM and 72.6 nM, respectively.
Regarding `CC1CN(CC2CCN(Cc3ccccc3)CC2)C(=O)N(c2cccc(C(=N)N)c2)C1` (centres unmarked) [SRI 31215, reference compound], the 50% inhibitory concentration (IC50) in experiment [1] (setting [5]) was 20000 nM.

Source of the values: US12590123B2, “Compounds and methods for treating cancer, viral infections, and allergic conditions” (Washington University, priority 2019, dated 2026).
